{"source": "patent US20010036965A1", "about": "“Iodo-nonoxynol-9-derivatives and methods for their use” (The Medical College of Hampton Roads, Eastern Virginia …, priority 1999, published 2001)", "key": {"human spermatozoa": {"system": "human spermatozoa", "assay": "Sander-Cramer assay, spermicidal activity", "type": "cell-based", "conditions": "for Highest Spermicidal Dilution, median / M.E.C. (minimum effective concentration): solvent dH2O; for Highest Spermicidal Dilution, median: N-9 equimolar 24, kill all spermatozoa within twenty seconds; for M.E.C. (minimum effective concentration): complete spermicidal activity within twenty seconds", "experimental": "N-9 and its iodinated derivatives were assessed in vitro for their ability to kill spermatozoa and HIV virions. The Sander-Cramer assay was performed in order to evaluate the spermicidal activity of the surfactants and their coprecipitates with PVP. This assay determines the minimum lethal dose, reported as a concentration, of spermicide needed to kill all spermatozoa within twenty seconds. The following oligomers were incorporated into coprecipitates with PVP for the in vitro assessment: IN-9 (n=1-17), IN-9 (n=8) and IN-9 (n=13). The neat liquids of N-9 and IN-9 were also assessed for their spermicidal activity. The quantity of active compound in each coprecipitate was determined by a normal phase HPLC analysis and presented as a weight by weight (w/w) percentage. The amount of active compound in each coprecipitate was adjusted by using the w/w percentages so that the assays were conducted using equimolar amounts of active compounds."}, "free HIV-1-RF": {"system": "free HIV-1-RF", "assay": "Cell-Free HIV Inactivation assay", "type": "cell-based", "conditions": "for Infec. Red. (log), Cell-Free HIV Inactivation: two minute incubation; for virucidal activity against cell-free HIV: sufficient if viral titer reduction of at least two log10 units", "experimental": "(§1) The compounds used in the Sander-Cramer assays (neat liquids and coprecipitates) were evaluated for their anti-HIV activity using the Cell-Free and Cell-Associated Inactivation Assays (see Table #3). Both assays employ solutions of active compound at varying concentrations in order to detect the optimal concentration to reduce the infectivity of a predetermined HIV viral load in the form of free HIV-1-RF or RF infected H9 cells. A solution of active compound is determined to have sufficient anti-viral activity if, when tested, a viral titer reduction of at least two log10 units occurs. N-9 and IN-9, in their neat liquid forms, were both found to be virucidal against cell-free and cell-associate HIV. […] The coprecipitates of N-9 (n=1-17) and IN-9 (n=1-17) were also virucidal in both assays."}, "RF infected H9 cells": {"system": "RF infected H9 cells", "assay": "Cell-Associated HIV Inactivation assay", "type": "cell-based, HIV-1", "conditions": "for Infec. Red. (log), Cell-Associated HIV Inactivation: two minute incubation; for virucidal activity against cell-associated HIV: sufficient if viral titer reduction of at least two log10 units", "experimental": "as §1"}, "HIV-1": {"system": "HIV-1", "conditions": "background; cited from earlier work"}, "[1]": {"conditions": "background; cited from earlier work"}, "[2]": {"assay": "Solubility and pH of test solutions in dH2O (Table 2)", "conditions": "in dH2O at initial concentration of the Sander-Cramer assay"}, "[3]": {"assay": "Partition coefficient in n-octanol/water (log P) with radiolabeled species", "type": "physicochemical", "text": "Radiolabeled species ([^14C]nonoxynol-9, [^125I]iodinated nonoxynol-9) were used to obtain precise measurements of the log P values. Iodinated nonoxynol-9 was conceptualized to be more lipophilic based upon the work by chemists such as Hammett and Hansch. Hammett determined that the halogens (F, Cl, Br, I), when attached covalently to an aromatic ring, withdrew a portion of the electron density out of the ring. The decrease in electron density causes the ring to be less susceptible to induced polarization by solvent molecules, therefore increasing its lipophilic character. The hydrophobic parameter π, developed by Hansch, reflects a substituent's ability to impart lipophilic character on a molecule (π=log Psubstituted molecule−log […]). Hansch found experimentally that the halogens created a positive π value in most molecular systems which correlated with an increase in the lipophilicity of the compound. […] Additionally, the lengthening of the ethylene oxide chain allows for reduced irritation of the vaginal epithelial lining by reducing the formation of micelles. […] Iodide was chosen as the halogen to substitute nonoxynol-9 due to its relatively large σ and π values it produces when employed as a substituent. With an increase in the hydrophobic character, iodinated nonoxynol-9 should insert into sperm membranes more readily leading to an increase in spermicidal activity. In addition, the molecular weight and size of iodinated nonoxynol-9 is greater than that of nonoxynol-9 which leads to the possibility of the molecule being less bioavailable from vaginally placed dosage forms."}, "[4]": {"conditions": "as determined by 125IN-9, mean ± spread"}, "[5]": {"conditions": "as determined by [14C]N-9, mean ± spread"}}}
{"compound": "CCCCCCCCCc1ccc(OCCOCCOCCOCCOCCOCCOCCOCCOCCO)cc1", "note": "[N-9 (1-17), nonoxynol-9]", "values": [{"measurement": "Highest Spermicidal Dilution, median", "setting": "human spermatozoa", "value": 128.0}, {"measurement": "M.E.C. (minimum effective concentration)", "setting": "human spermatozoa", "value": 188.0, "unit": "µg/mL"}, {"measurement": "Infec. Red. (log), Cell-Free HIV Inactivation", "setting": "free HIV-1-RF; Conc. 0.0032 %", "value": 0.3, "unit": "log"}, {"measurement": "Infec. Red. (log), Cell-Free HIV Inactivation", "setting": "free HIV-1-RF; Conc. 0.01 %", "value": 2.3, "unit": "log"}, {"measurement": "Infec. Red. (log), Cell-Free HIV Inactivation", "setting": "free HIV-1-RF; Conc. 0.032 %", "value": ">4.5", "unit": "log"}, {"measurement": "Infec. Red. (log), Cell-Free HIV Inactivation", "setting": "free HIV-1-RF; Conc. 0.1 %", "value": ">3.5", "unit": "log"}, {"measurement": "virucidal activity against cell-free HIV", "setting": "free HIV-1-RF", "value": "virucidal"}, {"measurement": "Infec. Red. (log), Cell-Associated HIV Inactivation", "setting": "RF infected H9 cells; Conc. 0.0032 %", "value": 0.8, "unit": "log"}, {"measurement": "Infec. Red. (log), Cell-Associated HIV Inactivation", "setting": "RF infected H9 cells; Conc. 0.01 %", "value": 0.8, "unit": "log"}, {"measurement": "Infec. Red. (log), Cell-Associated HIV Inactivation", "setting": "RF infected H9 cells; Conc. 0.032 %", "value": 2.5, "unit": "log"}, {"measurement": "Infec. Red. (log), Cell-Associated HIV Inactivation", "setting": "RF infected H9 cells; Conc. 0.1 %", "value": 3.2, "unit": "log"}, {"measurement": "virucidal activity against cell-associated HIV", "setting": "RF infected H9 cells", "value": "virucidal"}, {"measurement": "inactivation of HIV-1 in vitro", "setting": "HIV-1", "value": "inactivates HIV-1 completely"}, {"measurement": "vaginal irritation", "setting": "[1]", "value": "increase with increased dose"}, {"measurement": "Solubility", "setting": "[2]", "value": "OK clear soln."}]}
{"compound": "Mono-iodinated Nonoxynol-9 [IN-9 (n=4)]", "values": [{"measurement": "log P", "setting": "[3]; [4]", "value": "2.4 ± 0.2"}]}
{"compound": "Mono-iodinated Nonoxynol-9 [IN-9 (n=8)]", "values": [{"measurement": "log P", "setting": "[3]; [4]", "value": "2.2 ± 0.1"}]}
{"compound": "Mono-iodinated Nonoxynol-9 [IN-9 (n=11)]", "values": [{"measurement": "log P", "setting": "[3]; [4]", "value": "2.2 ± 0.1"}]}
{"compound": "Mono-iodinated Nonoxynol-9 [IN-9 (n=13)]", "values": [{"measurement": "log P", "setting": "[3]; [4]", "value": "1.8 ± 0.1"}]}
{"compound": "Mono-iodinated nonoxynol-9 [IN-9 (1-17)]", "values": [{"measurement": "MEC times less than that of neat N-9 (n=1-17)", "setting": "human spermatozoa; neat liquids", "value": "over 30 times"}, {"measurement": "Highest Spermicidal Dilution, median", "setting": "human spermatozoa", "value": 4096.0}, {"measurement": "M.E.C. (minimum effective concentration)", "setting": "human spermatozoa", "value": 6.0, "unit": "µg/mL"}, {"measurement": "Infec. Red. (log), Cell-Free HIV Inactivation", "setting": "free HIV-1-RF; Conc. 0.0032 %", "value": 0.3, "unit": "log"}, {"measurement": "Infec. Red. (log), Cell-Free HIV Inactivation", "setting": "free HIV-1-RF; Conc. 0.01 %", "value": 2.3, "unit": "log"}, {"measurement": "Infec. Red. (log), Cell-Free HIV Inactivation", "setting": "free HIV-1-RF; Conc. 0.032 %", "value": 3.3, "unit": "log"}, {"measurement": "Infec. Red. (log), Cell-Free HIV Inactivation", "setting": "free HIV-1-RF; Conc. 0.1 %", "value": ">4.5", "unit": "log"}, {"measurement": "effectiveness in killing HIV compared with N-9 (n=1-17)", "setting": "free HIV-1-RF; statement on Table 3, both assays", "value": "at least as effective in killing HIV as N-9 (n=1-17)"}, {"measurement": "virucidal activity against cell-free HIV", "setting": "free HIV-1-RF", "value": "virucidal"}, {"measurement": "effectiveness against cell-associated HIV compared with N-9", "setting": "RF infected H9 cells", "value": "slightly more effective than N-9"}, {"measurement": "Infec. Red. (log), Cell-Associated HIV Inactivation", "setting": "RF infected H9 cells; Conc. 0.0032 %", "value": 1.0, "unit": "log"}, {"measurement": "Infec. Red. (log), Cell-Associated HIV Inactivation", "setting": "RF infected H9 cells; Conc. 0.01 %", "value": 1.8, "unit": "log"}, {"measurement": "Infec. Red. (log), Cell-Associated HIV Inactivation", "setting": "RF infected H9 cells; Conc. 0.032 %", "value": 2.3, "unit": "log"}, {"measurement": "Infec. Red. (log), Cell-Associated HIV Inactivation", "setting": "RF infected H9 cells; Conc. 0.1 %", "value": ">5.0", "unit": "log"}, {"measurement": "virucidal activity against cell-associated HIV", "setting": "RF infected H9 cells", "value": "virucidal"}, {"measurement": "Solubility", "setting": "[2]", "value": "OK hazy soln."}]}
{"compound": "Nonoxynol-9 [N-9 (n=4), reference compound]", "values": [{"measurement": "log P", "setting": "[3]; [5]", "value": "1.6 ± 0.05"}]}
{"compound": "Nonoxynol-9 [N-9 (n=8), reference compound]", "values": [{"measurement": "log P", "setting": "[3]; [5]", "value": "1.4 ± 0.01"}]}
{"compound": "Nonoxynol-9 [N-9 (n=11), reference compound]", "values": [{"measurement": "log P", "setting": "[3]; [5]", "value": "1.3 ± 0.07"}]}
